Results: patent publication US8940738B2, “Pyrimidone compounds” (Mitsubishi Tanabe Pharma Corporation, priority 2009, dated 2015)

Target: bovine cerebral TPK1 (Bos taurus, UniProt A0A059UE90)
Test: Inhibitory activity against P-GS1 phosphorylation by bovine cerebral TPK1
Format: biochemical
Conditions: P-GS1 substrate, 41.7 μM [γ-32P] ATP, 25° C., 2 hours
Description: Experiment 1: Inhibitory Activity of the Medicament of the Present Invention Against P-GS1 Phosphorylation by Bovine Cerebral TPK1
A mixture containing 100 mM MES-sodium hydroxide (pH 6.5), 1 mM magnesium acetate, 0.5 mM EGTA, 5 mM β-mercaptoethanol, 0.02% Tween 20, 10% glycerol, 12 μg/ml P-GS1, 41.7 μM [γ^−32P] ATP (68 kBq/ml), bovine cerebral TPK1 and a compound shown in Table (a final mixture contained 1.7% DMSO deriving from a solution of a test compound prepared in the presence of 10% DMSO) was used as a reaction system. The phosphorylation was started by adding ATP, and the reaction was conducted at 25° C. for 2 hours, and then stopped by adding 21% perchloric acid on ice cooling. The reaction mixture was centrifuged at 12,000 rpm for 5 minutes and adsorbed on P81 paper (Whatmann), and then the paper was washed four times with 75 mM phosphoric acid, three times with water and once with acetone. The paper was dried, and the residual radioactivity was measured using a liquid scintillation counter.

Sequence of bovine cerebral TPK1 (A0A059UE90 1-419): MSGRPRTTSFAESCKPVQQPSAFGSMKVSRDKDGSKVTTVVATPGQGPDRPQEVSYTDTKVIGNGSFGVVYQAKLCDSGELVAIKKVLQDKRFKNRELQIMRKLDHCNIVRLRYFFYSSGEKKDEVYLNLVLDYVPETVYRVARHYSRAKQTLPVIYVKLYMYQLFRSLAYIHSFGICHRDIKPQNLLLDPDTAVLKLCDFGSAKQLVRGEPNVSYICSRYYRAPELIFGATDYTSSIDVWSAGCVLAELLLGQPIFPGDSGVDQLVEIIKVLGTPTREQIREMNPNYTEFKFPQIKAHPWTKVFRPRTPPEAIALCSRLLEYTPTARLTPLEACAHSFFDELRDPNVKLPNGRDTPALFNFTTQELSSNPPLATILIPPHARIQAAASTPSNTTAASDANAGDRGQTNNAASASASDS

IC50 [µM] | Structure (SMILES)
0.0101 | Cn1c(N2CCNC(c3ccc(C#N)cc3)C2)nc(-c2ncncc2F)cc1=O (centres unmarked) [Compound 6, 4-[4-(5′-Fluoro-1-methyl-6-oxo-1,6-dihydro-[4,4′]bipyrimidinyl-2-yl)-piperazin-2yl]-benzonitrile]
0.0155 | Cn1c(N2CCO[C@@H](c3ccc(F)cc3)C2)nc(-c2ncncc2F)cc1=O [Compound 1, (S)-5′-fluoro-2-[2-(4-fluoro-phenyl)-morpholin-4-yl]-1-methyl-1H-[4,4′]bipyrimidinyl-6-one]
